According to BigSolDB 2.1:

COc1c(C)c2c(c(O)c1C/C=C(\C)CCC(=O)OCCN1CCOCC1)C(=O)OC2
solubility (mole fraction)
Conditions	in DMSO	in ethanol	in ethyl acetate	in ethylene glycol	in isopropanol	in n-butanol	in propylene glycol	in transcutol	in water
298.2 K	0.023	0.00613	0.0689	0.000715	0.00852	0.0108	0.00105	0.0393	1.75e-06
303.2 K	0.0272	0.00676	0.0744	0.000858	0.00934	0.0119	0.00126	0.0421	2.29e-06
308.2 K	0.0328	0.00749	0.0802	0.00103	0.0102	0.0132	0.00147	0.0452	2.87e-06
313.2 K	0.0388	0.00833	0.0856	0.0012	0.0111	0.0144	0.00168	0.0486	3.49e-06
318.2 K	0.0439	0.00906	0.0928	0.0014	0.0121	0.0159	0.00193	0.0522	4.16e-06

Conditions	solubility (mole fraction)
in PEG-400, 298.2 K	0.0271
in PEG-400, 303.2 K	0.0312
in PEG-400, 308.2 K	0.0355
in PEG-400, 313.2 K	0.0399
in PEG-400, 318.2 K	0.0449
